The results in this text go back to patent publication US12459918B2, “Isoquinolinone derivatives serving as rock protein kinase inhibitors and use thereof” (GUANGZHOU OCUSUN OPHTHALMIC BIOTECHNOLOGY CO., LTD., priority 2019, dated 2025).

The subject of this experiment is New Zealand rabbits with normal intraocular pressure. As to the kind of experiment: Intraocular pressure reduction experiment in New Zealand rabbits with normal intraocular pressure. The experiment is classed as in vivo. The note with it: for Intraocular pressure in the left eye: 20 mg/mL group, left eye (saline or solvent); for Intraocular pressure in the right eye: 20 mg/mL in right eye; for Reduction magnitude of intraocular pressure: 20 mg/mL, left minus right eye. The source says:
Experimental Example 2. Intraocular Pressure Reduction Experiment in New Zealand Rabbits with Normal Intraocular Pressure
Rabbits with normal intraocular pressure were adopted to screen intraocular pressure reduction actions of the potential compounds by eye-drop administration.
Male New Zealand rabbits, aged 97-127 days, weighted 2.65-3.5 kg, purchased from PizhouDongfang Breeding Co. Ltd.
The male New Zealand rabbits were randomly divided into 8 rabbits/per group using a computer-generated randomization method Animals in each group were eye-dropped with different test samples in the right eye, and normal saline or solvent in the left eye, and the volume of the administration was both 50 μL/eye. The intraocular pressure of the animals was measured before administration and in 1, 2, 4, 6, 8 and 10 hours after the administration, respectively.

For `Cc1cn(COC(=O)c2ccccc2)c(=O)c2cccc(S(=O)(=O)N3CC[C@H](N)C3)c12` [Compound 64], the “Intraocular pressure in the left eye” value is, setting by setting: (1 hour after administration) 11.96 mmHg; (2 hours after administration) 9.79 mmHg; (4 hours after administration) 11.50 mmHg; (6 hours after administration) 11.54 mmHg; (8 hours after administration) 11.75 mmHg; (10 hours after administration) 11.88 mmHg. Moreover, the “Intraocular pressure in the left eye” value (before administration) turned out to be 11.29 mmHg. Further, the “Intraocular pressure in the right eye” value runs as follows: (1 hour after administration) 11.54 mmHg; (2 hours after administration) 7.42 mmHg; (4 hours after administration) 7.13 mmHg; (6 hours after administration) 7.38 mmHg; (8 hours after administration) 7.63 mmHg; (10 hours after administration) 9.71 mmHg. Also, the “Intraocular pressure in the right eye” value (before administration) was found to be 12.04 mmHg. The “Reduction magnitude of intraocular pressure” value was determined as 0.42 mmHg (1 hour after administration); 2.37 mmHg (2 hours after administration); 4.37 mmHg (4 hours after administration); 4.16 mmHg (6 hours after administration); 4.12 mmHg (8 hours after administration); 2.17 mmHg (10 hours after administration). Moreover, the “Reduction magnitude of intraocular pressure” value (before administration) is recorded as −0.75 mmHg.
